“And” between values parts separate entries of the source, which are not always exact repeats. Identical values can stand only once.
What follows are compounds tested against Apoptosis regulator Bcl-2 (Homo sapiens, UniProt P10415) (assay: Bcl-2 TR-FRET Assay).
Protocol: Compounds disclosed herein were tested for blocking of Bcl-2 protein with its ligand in an assay based on Time-Resolved Fluorescence Resonance Energy Transfer (TR-FRET) methodology. Recombinant human 0.05 nM Bcl-2 protein was pre-incubated with a serial dilution of compounds disclosed herein (top final concentration is 1 uM or 0.1 uM or 0.02 uM or 0.01 uM, 10 points) at room temperature for 0.5 hour in an assay buffer containing 20 mM potassium phosphate buffer, pH 7.5, 50 mM NaCl. 1 mM EDTA, 0.05% Tween-20, 0.01% BSA. Then the FITC labeled Bak peptide Ac-GQVGRQLAIIGDK(FITC)INR-amide (0.5 nM) and MAb Anti 6His Tb cryptate Gold were added to plate and further incubated at room temperature for 1 hour. The TR-FRET signals (337 nm-520 nm-490 nm) were read on BMG PHERAstar FSX instrument. The inhibition percentage of Bcl-2 interaction with its ligand in presence of increasing concentrations of compounds was calculated based on the TR-FRET signals.

Chain of Apoptosis regulator Bcl-2 (P10415 whole entry): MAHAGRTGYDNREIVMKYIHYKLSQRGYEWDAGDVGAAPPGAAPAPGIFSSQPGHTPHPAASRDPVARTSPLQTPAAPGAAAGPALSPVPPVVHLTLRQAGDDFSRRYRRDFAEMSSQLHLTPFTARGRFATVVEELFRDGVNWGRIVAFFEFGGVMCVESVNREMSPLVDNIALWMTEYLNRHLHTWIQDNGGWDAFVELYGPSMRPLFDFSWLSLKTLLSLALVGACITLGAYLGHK

Row | Structure (SMILES) | IC50
1 | CC(C)c1ccccc1C1CN(CC(C)(C)C)CCN1C1CC2(CCN(c3ccc(C(=O)NS(=O)(=O)c4ccc(NC[C@H]5CC[C@](C)(O)CC5)c([N+](=O)[O-])c4)c(Oc4cnc5[nH]ccc5c4)c3)CC2)C1 (some centres undefined) [US20240376097, Example 12] | 0.73 nM
2 | COCCN1CCN(C2CC3(CCN(c4ccc(C(=O)NS(=O)(=O)c5ccc(NC[C@H]6CC[C@](C)(O)CC6)c([N+](=O)[O-])c5)c(Oc5cnc6[nH]ccc6c5)c4)CC3)C2)C(c2ccccc2C(C)C)C1 (some centres undefined) [US20240376097, Example 13] | 0.011 nM
3 | COc1ccc(CN2CCN(C3CC4(CCN(c5ccc(C(=O)NS(=O)(=O)c6ccc(NC[C@H]7CC[C@](C)(O)CC7)c([N+](=O)[O-])c6)c(Oc6cnc7[nH]ccc7c6)c5)CC4)C3)C(c3ccccc3C(C)C)C2)cc1 (some centres undefined) [US20240376097, Example 19] | 0.086 nM
4 | COc1cc(CN2CCN(C3CC4(CCN(c5ccc(C(=O)NS(=O)(=O)c6ccc(NC[C@H]7CC[C@](C)(O)CC7)c([N+](=O)[O-])c6)c(Oc6cnc7[nH]ccc7c6)c5)CC4)C3)C(c3ccccc3C(C)C)C2)cc(OC)c1 (some centres undefined) [US20240376097, Example 49] | 0.2 nM
5 | COc1cc(CN2CCN(C3CC4(CCN(c5ccc(C(=O)NS(=O)(=O)c6ccc(NC[C@H]7CC[C@](C)(O)CC7)c([N+](=O)[O-])c6)c(Oc6cnc7[nH]ccc7c6)c5)CC4)C3)C(c3ccccc3C(C)C)C2)cc(C(F)(F)F)c1OC (some centres undefined) [US20240376097, Example 179] | 1.5 nM
6 | COc1cc(CN2CCN(C3CC4(CCN(c5ccc(C(=O)NS(=O)(=O)c6ccc(NC[C@H]7CC[C@](C)(O)CC7)c([N+](=O)[O-])c6)c(Oc6cnc7[nH]cc(F)c7c6)c5)CC4)C3)[C@H](c3ccccc3C(C)C)C2)cc(C)c1OC [US20240376097, Example 210] | 0.33 nM
7 | COc1cc(CN2CCN(C3CC4(CCN(c5ccc(C(=O)NS(=O)(=O)c6ccc(NC[C@H]7CC[C@](C)(O)CC7)c([N+](=O)[O-])c6)c(Oc6cnc7[nH]ccc7c6)c5)CC4)C3)[C@H](c3ccccc3C(C)C)C2)ccc1Cl [US20240376097, Example 276] | 0.48 nM
8 | COc1cc(CN2CCN(C3CC4(CCN(c5ccc(C(=O)NS(=O)(=O)c6ccc(NC[C@H]7CC[C@](C)(O)CC7)c([N+](=O)[O-])c6)c(Oc6cnc7[nH]cc(F)c7c6)c5)CC4)C3)[C@H](c3ccccc3C(C)C)C2)ccc1Cl [US20240376097, Example 278] | 0.6 nM
9 | CC(C)c1ccccc1[C@@H]1CN(Cc2ccc(OC3CC3)c(OC3CC3)c2)CCN1C1CC2(C1)CN(c1ccc(C(=O)NS(=O)(=O)c3ccc(NC[C@H]4CC[C@](C)(O)CC4)c([N+](=O)[O-])c3)c(Oc3cnc4[nH]cc(F)c4c3)c1)C2 [US20240376097, Example 363] | 0.34 nM and 0.4 nM

From BindingDB's records for patent US20240376097 (Beigene, 2024)
